Read-outs that look alike come from different tables or passages of the source.
How the values were obtained:
Jurkat cells = experiment: Jurkat flow cytometry (AnnexinA5/PI viability, DiIC1(5) MMP, monobromobimane GSH, cell cycle); format: cell-based, human; conditions: for IC50: 48 h incubation
Description: Jurkat cells The cells were counted in MUSE Cell Analyzer using MUSE® Count &Viability Assay Kit (Merck-Millipore, Billerica, MA, USA) and adjusted to a density of 1.0 x 10^5/ml in RPMI 1640 medium (with 10% FCS and 1% glutamine). 9.000 cells per well per 90 µL were seeded into 96 well culture plates. The 30 mM prodrug stock solutions in DMSO were diluted to 300 µM, 100 µM, 30 µM and 10 µM in cell culture medium and 10 µL of the dilutions was pipetted to the cells, receiving final test concentrations of 30 µM, 10 µM, 3 µM and 1 µM. Every concentration was tested in triplicates. Cells with corresponding amounts of DMSO served as negative controls. After 48 h cells were mixed and 25 µL of […]
the cell suspension was incubated with 200 µL of freshly prepared staining solution, consisting of AnnexinA5-Fitc (1 µL), 1,1′,3,3,3′,3′-hexamethylindodicarbocyanine iodide (DiIC1(5), 0.4 µL) (both from ThermoFisher Scientific, Waltham, MA, USA), propidium iodide (PI, 67 ng) and monobromobimane (MBB, 33 µM, both from Sigma-Aldrich, Taufkirchen, Germany) per 1 ml Ringer’s solution (Fresenius Kabi AG, Bad Homburg, Germany). Cells were incubated for 20 min at 4°C and then analyzed in Gallios cytofluorometer™ (Beckman Coulter, Fullerton, CA, USA). Fitc and propidium iodide were excited at 488 nm; Fitc fluorescence was recorded on the FL1 sensor (525/38 nm band pass, BP) and propidium iodide fluorescence was detected on FL3 sensor (620/30 nm BP), DiIC1(5) fluorescence was excited at 638 nm and detected on FL6 sensor at 675/20 nm BP, and monobromobimane fluorescence was excited at 405 nm and detected on FL9 sensor at 430/40 nm BP. To eliminate any fluorescence bleed-through, electronic compensation was used. Data were analyzed employing Kaluza™ software Version 1.2 (Beckman Coulter, Fullerton, CA, USA) and processed in Microsoft Excel (Figures S51-S54, Table S5). Cells negative for Annexin A5-Fitc and propidium iodide were considered viable. IC50 values were determined by fitting the % values of Ax-PI- cells versus drug concentration with a sigmoidal curve using GraphPad Prism software. Reduced glutathione (an intracellular thiol) can be detected by monobromobimane, a dye that becomes fluorescent after non-enzymatic binding to thiols.[S3] For analysis of amount of mitochondrial membrane potential or reduced glutathione the mean fluorescence index (MFI) was determined from viable cells by gating on Ax -PI- events.
Table S5. Effects of the prodrugs on the viability of Jurkat cell lines (IC50 values) after 48

ARPE-19 cells = experiment: Cytotoxicity MTT assay, ARPE-19; format: cell-based; conditions: read-out: 50% cell survival (EC50)
Description: Study of synergy of prodrugs with radiotherapy for SAS and FaDu cells
Optimization of concentration of prodrugs and controls / MTT assay
The MTT assay was also applied to assess the impact of various drugs (0.01-100 µM) on the viability of the two human head and neck squamous carcinoma cell (HNSCC) lines SAS and FaDu as well as retinal pigment epithelial ARPE-19 cells and human fibroblasts (HF). Cells were seeded into 96-well plates at concentrations of 4000 and 2000 cells per […]
h before exposure to the drugs. All drug dilutions were prepared from 20 mM stock solutions in DMSO. The final DMSO concentration was set to 0.5% in all sample s including control. After completion of the treatment, the wells were processed according to the routine MTT protocol as described above; the formazan absorbance was then measured on a Biotek Epoch Microplate Spectrophotometer at 590 nm and corrected for the background signal at 620 nm. N≥3 independent experiments were performed for each drug candidate, cell type and treatment interval. Cell survival was recorded as function of the drug concentration, and dose-response curves were fitted with the Boltzmann equation where appropriate. We calculated the half-maximal response (EC50) as well as the EC20 (80% survival) according to the line curve (see Tables S6-S8). EC20-values were used as a basis to select the compound-specific non-toxic drug concentrations for combination with radiotherapy.

A2780 cells = experiment: Mitochondrial ROS (MitoSOX, flow cytometry), A2780; format: cell-based, human
Description: Monitoring mitochondrial ROS (mROS)
A2780 cells were seeded in RPMI 1640 medium containing 5% FBS, 1% L-glutamine and 1% penicillin/streptomycin in a 96-well microtiter plate (total volume 0.1 mL) at a density of 250 cells/µL one day before the experiment. On the day of the experiment, the cells were washed with DPBS buffer and a fresh portion of RPMI 1640 medium containing 5% FBS, 1% L-glutamine and 1% penicillin/streptomycin (100 µL) was added followed by addition of compounds (1 μL of stock solutions in DMSO, final concentration of the prodrugs was 5, 10 μM and 30 μM) or carrier only (DMSO, 1 µL, final concentration 1 %, v/v) and incubation for 1 or 2 h in the dark chamber filled with CO 2 (5%) at 37 °C. After that, the cells were washed twice with DPBS buffer and the medium was replaced with HBSS (Hanks' Balanced Salt solution, 50 μL) containing MitoSOX (Red Mitochondrial Superoxide Indicator, Thermo-Fisher, Catalog number M36008, final concentration 5 µM obtained by adding 0.5 µ L of the 0.5 mM stock solution of MitoSOX in DMSO to the HBSS ) […]
(1 picture or pasted object on this page, not shown here) […]
and the cells were incubated in the dark chamber filled with CO2 (5%) at 37 °C for 20 min.
Next, the cells were detached from the culture dish using trypsin/EDTA (0.025%/0.01%, v/v, 50 µL). The cells were re-suspended in RPMI 1640 medium containing 5% FBS, 1% L-glutamine and 1% penicillin/streptomycin (100 µL). Finally, the fluorescence of live cells (λex = 488 nm, λem = 578 nm) in the suspensions was determined by using flow cytometry

| SMILES | effect on MMP (Jurkat cells; 48 h) | effect on cell cycle (Jurkat cells; 48 h) | effect on intracellular GSH amount (Jurkat cells; 48 h) | mechanism of cell death (Jurkat cells; 48 h, Annexin A5/PI) | IC50 (Jurkat cells) [µM] | EC50 (ARPE-19 cells; ARPE-19, 24h) [µM] | EC50 (ARPE-19 cells; ARPE-19, 48h) [µM] | mitochondrial ROS (mROS) vs non-treated cells (A2780 cells) |
| --- | --- | --- | --- | --- | --- | --- | --- | --- |
| CC1(C)OB(c2ccc(COC(=O)N(Cc3cn(Cc4ccc(Cn5cc(Cc6ccccc6)nn5)cc4)nn3)[c-]3cccc3)cc2)OC1(C)C.[Fe+2].c1cc[cH-]c1 [2c] | decrease | cell-cycle arrest in the G0/G1 phase | unaffected | mainly via necrosis | 5 ± 2 | > 50 | > 50 | significantly increased |
| CC1(C)OB(c2ccc(COC(=O)N(Cc3cccc(CN4CCCCC4)c3)[c-]3cccc3)cc2)OC1(C)C.[Fe+2].c1cc[cH-]c1 [5b] | – | – | – | – | 7.2 ± 0.1 | 40.4 ± 2.5 | 26.6 ± 8.3 | did not affect mROS |
| CCOC(=O)CCCCCn1cc(CN(C(=O)OCc2ccc(B3OC(C)(C)C(C)(C)O3)cc2)[c-]2cccc2)nn1.[Fe+2].c1cc[cH-]c1 [compound 1] | slight increase | – | slight increase | – | 30 ± 4 | – | – | substantially weaker |
| [Fe+2].c1cc[cH-]c1.c1cc[cH-]c1 [compound 6, ferrocene] | – | – | – | – | > 100 | > 50 | > 50 | – |

— paper PMC8750417, “Intracellular Amplifiers of Reactive Oxygen Species Affecting Mitochondria as Radiosensitizers” (Cancers, 2021)
